Values joined by “and” are separate entries in the source; they are usually repeats but may differ in a detail not shown here. Equal entries are not always repeated.
Tested on: Cell-based prion protein 5' UTR reporter, plate reader
Experiment: prion protein 5' UTR mRNA inhibitors – cell-based, plate reader, cherry-picked samples, dose response (AID 504539)

SMILES	AC50
COc1cc(OC)cc(-c2cc3nc(C)c(CCC(=O)O)c(C)n3n2)c1	1610 nM
Cc1cc(C(=O)COC(=O)c2ccccc2O)c(C)n1Cc1cccs1	83 nM
CCC1=Nc2cc(C(=O)NCc3ccco3)ccc2Sc2ccc(C)cc21	652 nM
COc1cccc(/C=N/Nc2ccc(C(=O)O)cc2)c1O	222 nM
Cc1ccc(C(=O)Nc2cc3ccccc3oc2=O)cc1	143 nM
Cc1cc(C)c2c(N)c(C(=O)Nc3ncc(C)s3)sc2n1	388 nM
Cc1ccc(-c2cc3c(nn2)-c2ccccc2C3=O)cc1	575 nM
Cc1cc2sc3ccc(C#CC4(O)CCCCC4)cc3c(=O)c2cc1C	< 38 nM
COc1ccc(/C=N/NC(=O)c2cc3c(OC)ccc(OC)c3[nH]2)cc1O	1340 nM
COc1ccccc1N1CCN(C(=O)c2cc(=O)c3cc(C)cc(C)c3o2)CC1	248 nM
COc1cc(SC)ccc1C(=O)Nc1ccc(Cl)cn1	567 nM
Cc1c(C(=O)N/N=C/c2ccc(Cl)cc2)[nH]c2ccc(Cl)cc12	1090 nM
c1ccc(-c2ccc(-c3nc(-c4ccccn4)no3)cc2)cc1	224 nM
CSC1SCC2C(=O)N(C)C(C(C)C)C(=O)OCC(NC(=O)c3cnc4ccccc4n3)C(=O)NC(C)C(=O)N(C)C1C(=O)N(C)C(C(C)C)C(=O)OCC(NC(=O)c1cnc3ccccc3n1)C(=O)NC(C)C(=O)N2C (configuration not stated)	< 38 nM
CC1=C(C(=O)Nc2ccc(CC(=O)NCc3ccc(OC(C)C)cc3)cc2)SCCO1	974 nM
COc1ccc2c(c1)sc1nc(-c3ccccc3)cn12	556 nM
CC(=O)OC1CC(OC2C(O)CC(OC3C(O)CC(OC4CCC5(C)C(CCC6C5CC(O)C5(C)C(C7=CC(=O)OC7)CCC65O)C4)OC3C)OC2C)OC(C)C1OC1OC(CO)C(O)C(O)C1O (configuration not stated)	92 nM
COc1cc2c(c(OC)c1OC)-c1ccc(O)c(=O)cc1C(NC(C)=O)CC2 (configuration not stated)	160 nM
C=CCn1c(SCc2c(C)noc2C)nc2ccccc2c1=O	851 nM
COc1ccccc1-c1nnc2n1N=C(c1ccc(O)c(O)c1)CS2	206 nM
C/C(=N\NC(=O)c1ccccc1NC(=O)c1ccc(Cl)cc1)c1ccncc1	418 nM
CC(=O)OC(C)(C)/C=C/C(=O)C(C)(O)C1[C@H](O)C[C@@]2(C)C3CC=C4C(CC[C@@H](O)C4(C)C)[C@]3(CO)C(=O)C[C@]12C (some centres not stated)	85 nM
O=C(Nc1ccc(-c2nc3cccnc3s2)cc1)C1CCCO1 (configuration not stated)	630 nM
Cc1ccc(-c2cn3nc(C)c(C)nc3n2)cc1	485 nM
CN1CCN(c2ccc(-c3ccc4ccccc4n3)cc2)CC1	113 nM
Cc1ccc(/C=C2\SC(=S)N(CCCC(=O)NNC(=O)c3ccccc3O)C2=O)cc1	428 nM

SMILES	AC50
Nc1nc(F)nc2c1ncn2[C@@H]1O[C@H](CO)[C@@H](O)[C@H]1O	483 nM
COc1ccc(-n2ncc3c(N(C)C4CCCCC4)ncnc32)cc1	1520 nM
COc1ccc(CC2NCC(O)C2OC(C)=O)cc1 (configuration not stated)	168 nM
Cc1nn(-c2ccccc2)c2c1CC(=O)Nc1ccccc1-2	1960 nM
O=C(OCC(F)(F)F)c1cccc(COc2ccc3ccccc3c2)c1	376 nM
CCC1(OC(=O)CN)C(=O)OCc2c1cc1n(c2=O)Cc2cc3ccccc3nc2-1 (configuration not stated)	987 nM
C[C@H]1CCC/C=C/[C@@H]2C[C@H](O)C[C@H]2[C@H](O)/C=C/C(=O)O1	72 nM and 51 nM
CCOc1ccc(S(=O)(=O)Nc2cc(OC)ccc2OC)cc1	873 nM
S=C(Nc1ccccc1)Nc1ccc(OCc2ccc(Cl)cc2Cl)cc1	355 nM
CC(=O)O[C@H]1C(=O)[C@]2(C)[C@H]([C@H](OC(=O)c3ccccc3)[C@]3(O)C[C@H](OC(=O)[C@H](O)[C@@H](NC(=O)c4ccccc4)c4ccccc4)C(C)=C1C3(C)C)[C@]1(OC(C)=O)CO[C@@H]1C[C@@H]2O	188 nM
O=C1N(c2ccccc2)C[C@@H]2C[C@@H](c3cc4ccccc4o3)N3CCC[C@@]123	511 nM
Cc1csc(NC(=O)CCc2c(C)nc3cc(-c4ccc(Cl)cc4)nn3c2C)n1	1160 nM
CC(C)(C)c1ccc(Oc2ccc(N)cc2)cc1	248 nM
Cc1cc(C2=NNC(=NC3CC3)SC2)c(C)n1-c1ccccc1F	< 38 nM
COc1ccc(C(=O)Nc2ccc(C)cn2)c(OC)c1	280 nM
C=C1C(=O)O[C@@H]2C[C@@H](C)[C@@H]3C=CC(=O)[C@@]3(C)[C@@H](OC(=O)CC(=O)O[C@H]3[C@@H]4C(=C)C(=O)O[C@@H]4C[C@@H](C)[C@@H]4C=CC(=O)[C@]43C)[C@H]12	633 nM
CCc1ccn2cc(-c3ccc4c(c3)OCO4)nc2c1	384 nM
CC(=O)O[C@H]1C(=O)[C@@]2(C)C([C@H](OC(=O)c3ccccc3)[C@]3(O)C[C@H](OC(=O)[C@H](O)[C@@H](NC(=O)c4ccccc4)c4ccccc4)C(C)=C1C3(C)C)[C@]1(OC(C)=O)CO[C@@H]1C[C@H]2O (some centres not stated)	160 nM
CCN(CC)c1ccc(C(=C2C=CC(=[N+](CC)CC)C=C2)c2ccccc2)cc1	892 nM
CC1CCc2c(sc(NC(=O)CSc3ncn[nH]3)c2C#N)C1 (configuration not stated)	257 nM
O=[N+]([O-])c1cccc2nc3ccccc3c(NCCCn3ccnc3[N+](=O)[O-])c12	76 nM
COc1ccccc1-c1nnc2sc(-c3cc4ccccc4o3)nn12	4300 nM
CCN(CC)c1ccc(-c2nn3c(-c4n[nH]c5c4CCC5)nnc3s2)cc1	986 nM
COC(C(=O)C(O)C(C)O)C1Cc2cc3cc(OC4CC(OC5CC(O)C(O)C(C)O5)C(O)C(C)O4)c(C)c(O)c3c(O)c2C(=O)C1OC1CC(OC2CC(OC3CC(O)C(OC)C(C)O3)C(O)C(C)O2)C(O)C(C)O1 (configuration not stated)	83 nM
Cc1ccc(-n2nnc(-c3nccs3)n2)cc1	571 nM
CC(=O)c1ccc(Oc2cc(C)nc(-n3nc(C)cc3C)n2)cc1	1250 nM

SMILES	AC50
COc1ccc(C(=O)O/N=C(\N)c2ccccn2)cc1	99 nM
CC(/C=C1\SC(=O)N(CCCC(=O)O)C1=O)=C\c1ccccc1	162 nM
CC(=O)OC1(C)CC(C)C(=O)C(C(O)CC2CC(=O)NC(=O)C2)C1 (configuration not stated)	500 nM
O=[N+]([O-])c1nn(-c2ccc3c(c2)OCCO3)n(O)c1=Nc1ccccc1	180 nM
Cc1cc(C)c(S(=O)(=O)Nc2ccc3c4c(cccc24)CC3)c(C)c1	1900 nM
COc1cc(SC)ccc1C(=O)Nc1ccc(Br)cn1	500 nM
CCCCN=C[C@]12CCC(O)CC1(O)CCC1[C@@H]2CC[C@]2(C)[C@H](C3C=CC(=O)O3)CCC12O (some centres not stated)	243 nM
O=C(Nc1nc2ccccc2[nH]1)c1ccccc1F	210 nM
CN(C(=O)OC(C)(C)C)c1ccc(-c2nc3ccccc3s2)cc1	< 38 nM
O=C(NC1CCCCC1)c1n[nH]c2c1CCCCC2	759 nM
C[C@H]1CCC/C=C/C2C[C@H](O)CC2[C@H](O)/C=C/C(=O)O1 (some centres not stated)	40 nM
COc1ccc(OC)c(NS(=O)(=O)c2ccc(N3CCCC3=O)cc2)c1	880 nM
COc1cc2c(c(OC)c1OC)-c1ccc(SC)c(=O)cc1C(NC(=O)c1ccccc1)CC2 (configuration not stated)	< 38 nM
CC(=O)OC1C(=O)OCC23CCC4(C)OC4C2OC2CC(OC(=O)C=CC=CC(=O)OCCC1C)C3(C)C21CO1 (configuration not stated)	< 38 nM
N#CC1=C(N)OC2=C(CCc3ccccc32)C1c1ccccc1 (configuration not stated)	945 nM
COc1cc(/C=C2\COC/C(=C\c3cc(OC)c(OC)c(OC)c3)C2=O)cc(OC)c1OC	788 nM
O=C(Nc1ccc(N2CCOCC2)cc1)c1cnsn1	486 nM
Cc1ccoc1C(=O)Nc1ccc(CC(=O)O)cc1	374 nM
COC(=O)Cc1[nH]n(-c2nc3ccccc3s2)c(=O)c1C(C)=Nc1ccc(Cl)cc1	70 nM
N/C(=N\OCc1ccc([N+](=O)[O-])cc1)c1ccccn1	219 nM
COC(=O)c1ccccc1NC(=O)Cn1c(-c2nonc2N)nc2ccccc21	605 nM
Nc1ccc(-c2cc3ccccc3c(=O)o2)cc1	467 nM
CCN(CC)c1ccc2cc(-c3nc4ccccc4[nH]3)c(=O)oc2c1	868 nM
COC(=O)Cc1[nH]n(-c2nc3ccccc3s2)c(=O)c1C(C)=Nc1ccc(OC)cc1	108 nM
CCC(C)C1NC(=O)C(NC(=O)C(CC(C)C)N(C)C(=O)C2CCCN2C(=O)C(C)O)C(C)OC(=O)C(Cc2ccc(OC)cc2)N(C)C(=O)C2CCCN2C(=O)C(CC(C)C)NC(=O)[C@H](C)C(=O)[C@H](C(C)C)OC(=O)CC1O (some centres not stated)	84 nM
O=C(O)CSCC(=O)Nc1ccc(C2CCCCC2)cc1	1560 nM

SMILES	AC50
O=C1NC2C(=CC(O)C(O)C2O)c2cc3c(c(O)c21)OCO3 (configuration not stated)	205 nM
O=C(Nc1nccs1)c1cc2c(s1)CCCCC2	128 nM
Cc1ccc(C(=O)O/N=C(\N)c2ccccn2)c(Cl)c1	197 nM
CN1CCc2c(sc(NC(=O)c3ccc([N+](=O)[O-])o3)c2C(N)=O)C1	972 nM
Cc1ccc(C(=O)NCCc2ccccc2)cc1	612 nM
Cc1ccc(C(=O)O/N=C(\N)c2ccccc2)c(Cl)c1	948 nM
CC(=O)O[C@H]1C(=O)[C@@]2(C)[C@H]([C@H](OC(=O)c3ccccc3)[C@]3(O)C[C@H](OC(=O)[C@H](O)C(NC(=O)c4ccccc4)c4ccccc4)C(C)=C1C3(C)C)[C@]1(OC(C)=O)CO[C@@H]1C[C@@H]2O (some centres not stated)	170 nM
COc1cc(C(=O)N2CCN(c3cccc(C)c3C)CC2)cc(OC)c1OC	1410 nM
Cc1c(C(=O)OCCOC(C)C)[nH]c2c1C(=O)CC(c1ccco1)C2 (configuration not stated)	450 nM
CCCOc1ccc2cc(-c3ccccn3)c(=O)oc2c1	399 nM
CC(=O)CSc1ccc(-c2nc3cc(C)c(C)cc3[nH]2)cn1	434 nM
CC(=O)O[C@H]1C[C@@H]2OC3C=C(C)CCC3(C)[C@@]1(C)[C@@]21CO1 (some centres not stated)	2070 nM
N/C(=N\OC(=O)c1ccc(Cl)cc1Cl)c1ccccn1	539 nM
O=C(CN1C(=O)c2ccccc2S1(=O)=O)c1ccc2c(c1)OCCO2	114 nM
COc1ccc(-c2nsc3c(N4CCCCC4C)ncnc23)cc1 (configuration not stated)	51 nM
Cc1cc(C(=O)CSc2nnc3ccccn23)c(C)n1-c1ccccc1	480 nM
CCSc1nc(-c2ccccc2)nc(C(Cl)Cl)n1	1060 nM
Cc1cc(NC(=O)CSc2nc(-c3ccco3)cc(C(F)(F)F)n2)no1	560 nM
Cc1ccc(/C=N/NC(=O)COc2ccccc2-c2ccccc2)cc1	172 nM
CN(C)c1ccc(NC(=S)c2ccccn2)cc1	222 nM
COc1cc(C2c3[nH]c4ccccc4c3CC3COC(=O)N32)cc(OC)c1O (configuration not stated)	270 nM
Cc1ccc(C(=O)/C=C/Nc2ccccn2)cc1	233 nM
O=C1C(=C2SCCCS2)CC/C1=C\c1ccc(F)cc1	292 nM
CC(C)(C)c1ccc(C(=O)O/N=C(\N)c2ccccn2)cc1	317 nM

Source: PubChem BioAssay AID504539 (Broad Institute, 2011)
